{"source": "patent US12582727B2", "about": "“Chemiluminescent and fluorescent nanoparticle for optical imaging of cancer” (priority 2018, dated 2026)", "key": {"[1]": {"tested_on": "liver, lungs, kidney, heart, and spleen", "experiment": "Histology (H&E) of internal organs for toxicity", "type": "in vivo", "settings": "compared to control (non-treated) group, 2 days post-intravenous injection", "experimental": "After euthanizing mice with carbon dioxide gas, the internal organs (liver, kidney, spleen, heart, and lung) and tumor tissue were extracted and photographed using IVIS imaging. In addition, tumor tissues were excised from the mice at 2 days post-intravenous injection of free-Ce6, GCCe6, FA-GCCe6, CNP and FA-CNP (0.1 mL equivalent Ce6 concentration of 1.34×10^−5 mol/kg body weight) fixed with 10% Neutral Buffered Formalin solution, and embedded in paraffin, followed by sectioning. The sliced internal organs (5 μm in thickness) were stained with hematoxylin and eosin (H&E) and observed under an optical microscope. In addition, sliced tumor tissues were determined their FL and CL imaging under a confocal laser scanning microscope (Zeusis Nikon, Tokyo, Japan)."}, "[2]": {"tested_on": "NOK (Normal oral keratinocyte)", "experiment": "Cellular uptake, NOK cells (FRα-negative)", "type": "cell-based", "settings": "1 and 3 hours of incubation, comparison among samples", "experimental": "The cell internalization of CNPs was characterized by a fluorescence microscopy. As shown in FIGS. 14A and 14B, the CNPs quickly enter into NOK and MOC2 cells. […] Through the cellular uptake study, it was confirmed that CNPs efficiently enter into the cells within 1 hour.\nTo evaluate the cellular uptake, NOK (Normal oral keratinocyte) and MOC2 (immunogenic murine squamous cell carcinoma) cells were used as folate receptor alpha (FRα)-negative and -positive cells, respectively (FIGS. 15A and 15B).\nFor visualization of the cellular uptake, the NOK and MOC2 cells in each well were treated with free-Ce6, GCCe6, FA-GCCe6, CNP and FA-CNP and then subjected to DAPI staining. […] The fluorescence images matched to the corresponding data in FIGS. 15A and 15B. The enhancement of the cellular uptake is attributed to the presence of FA facilitating receptor-mediated endocytosis."}}}
{"substance": "chlorin e6 [free-Ce6]", "values": [{"measurement": "toxicity in H&E stained internal organs", "setting": "[1]", "value": "no significant cellular toxicity"}, {"measurement": "cellular uptake amount", "setting": "[2]", "value": "no significant difference"}]}
